# From patent publication US7820212B2, “Abietane diterpenoid compound, and composition comprising extract of Torreya nucifera, or abietane diterpenoid compounds or terpenoid compounds isolated from them for prevention and treatment of cardiovascular disease” (Korea Research Institute of Bioscience and Biotechnology, priority 2004, dated 2010)
# Tests used:
# hACAT-1 = target: T1, hACAT-1 (Homo sapiens, UniProt P35610); assay: ACAT activity, microsomal fraction of Hi5 cells over-expressing hACAT-1; assay type: biochemical
# T1 construct: made in house; host or cells: Hi5 insect cells infected with recombinant baculovirus (virus produced in sf9 cells); microsomal fraction used
# T1 sequence (P35610 1-550): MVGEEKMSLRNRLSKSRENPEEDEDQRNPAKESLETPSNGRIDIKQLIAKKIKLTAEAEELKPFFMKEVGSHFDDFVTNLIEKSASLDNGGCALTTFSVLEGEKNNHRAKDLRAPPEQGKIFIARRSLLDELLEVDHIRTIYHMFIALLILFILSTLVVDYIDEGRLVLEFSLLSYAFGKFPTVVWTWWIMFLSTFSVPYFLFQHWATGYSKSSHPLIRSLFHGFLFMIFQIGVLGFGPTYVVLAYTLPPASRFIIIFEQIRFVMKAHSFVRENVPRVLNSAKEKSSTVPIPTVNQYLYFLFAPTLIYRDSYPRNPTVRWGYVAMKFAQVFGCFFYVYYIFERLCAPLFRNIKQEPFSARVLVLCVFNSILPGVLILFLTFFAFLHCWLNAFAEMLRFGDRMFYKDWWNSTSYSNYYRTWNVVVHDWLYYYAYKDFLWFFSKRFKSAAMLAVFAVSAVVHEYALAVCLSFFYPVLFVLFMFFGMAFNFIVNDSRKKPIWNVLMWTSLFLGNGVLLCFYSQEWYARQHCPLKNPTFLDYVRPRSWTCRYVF
# Description: (§1) In order to investigate the effect on hACAT-1 and hACAT-2 activities, hACAT-1 and hACAT-2 proteins were first obtained by taking advantage of baculovirus expression system.
# (§2) cDNAs of hACAT-1 and hACAT-2 obtained from human liver cDNA library screening were inserted into baculovirus transfer vector, which was then introduced into insect sf9 cells to produce virus. Then, recombinant viruses of HACAT-1 and hACAT-2 were separated by plaque purification method, and amplification was performed three times to increase titer of viral stock. Hi5 insect cells having a good protein expression efficacy were infected with the recombinant virus, making multiplicity of infection as 1, followed by shaking culture at 27° C. for one day.
# (§3) The cultured Hi5 cells over-expressing hACAT-1 and hACAT-2 were centrifuged at 500×g for 15 minutes to separate microsomal fraction. Then, cells were crushed in hypotonic buffer by quick freezing quick thawing, followed by ultracentrifugation at 100,000×g for one hour.
# (§4) The obtained microsomal fractions were suspended in storage buffer solution, adjusting protein content to 8 mg/ml, which was stored in a deep freezer before using.
# (§5) 6.67 μl of cholesterol dissolved in acetone at the concentration of 1 mg/ml was mixed with 6 μl of 10% triton WR 1339 (Sigma Co.) in acetone. And acetone was evaporated by nitrogen gas. Distilled water was added to the resultant mixture to adjust the content of cholesterol to […].
# (§6) To 10 μl of cholesterol solution was added 10 μl of 1 M KH2PO4 (pH 7.4), 5 μl of 0.6 mM BSA (bovine serum albumin), 10 μl of the microsomal solution obtained above, 10 μl of sample (T. nucifera extracts or abietane diterpenoid compound isolated from the same) and 45 μl of distilled water (total 90 μl). The mixture was pre-incubated in a 37° C. water bath for 30 minutes.
# (§7) 10 μl of [1-^14C]oleyl-CoA solution (0.05 μCi, final concentration 10 μM) was added to the pre-incubated mixture, which was reacted in a 37° C. water bath for 30 minutes. To the mixture was added 500 μl of isopropanol:heptane solution (4:1 (v/v)), 300 μl of heptane and 200 μl of 0.1 M KH2PO4 (pH 7.4), which was stirred vigorously with vortex and then allowed to phase separation under gravity at room temperature for 2 minutes.
# (§8) The 200 μl of upper phase was put in a scintillation vial, to which 4 ml of scintillation solution (Lipoluma, Lumac Co.) was added. Radioactivity of the upper phase was measured by a scintillation counter (1450 Microbeta liquid scintillation counter, Wallacoy, Finland).
# (§9) ACAT activity was calculated based on the radioactivity, the amount of synthesized cholesteryl oleate, measured above and expressed as a defined unit, pico mole per 1 mg of protein for 1 minute (pico mole/minute/mg protein).
# hACAT-2 = target: T2, hACAT-2 (Homo sapiens, UniProt O75908); assay: ACAT activity, microsomal fraction of Hi5 cells over-expressing hACAT-2; assay type: biochemical
# T2 construct: made in house; host or cells: Hi5 insect cells infected with recombinant baculovirus (virus produced in sf9 cells); microsomal fraction used
# T2 sequence (O75908 1-522): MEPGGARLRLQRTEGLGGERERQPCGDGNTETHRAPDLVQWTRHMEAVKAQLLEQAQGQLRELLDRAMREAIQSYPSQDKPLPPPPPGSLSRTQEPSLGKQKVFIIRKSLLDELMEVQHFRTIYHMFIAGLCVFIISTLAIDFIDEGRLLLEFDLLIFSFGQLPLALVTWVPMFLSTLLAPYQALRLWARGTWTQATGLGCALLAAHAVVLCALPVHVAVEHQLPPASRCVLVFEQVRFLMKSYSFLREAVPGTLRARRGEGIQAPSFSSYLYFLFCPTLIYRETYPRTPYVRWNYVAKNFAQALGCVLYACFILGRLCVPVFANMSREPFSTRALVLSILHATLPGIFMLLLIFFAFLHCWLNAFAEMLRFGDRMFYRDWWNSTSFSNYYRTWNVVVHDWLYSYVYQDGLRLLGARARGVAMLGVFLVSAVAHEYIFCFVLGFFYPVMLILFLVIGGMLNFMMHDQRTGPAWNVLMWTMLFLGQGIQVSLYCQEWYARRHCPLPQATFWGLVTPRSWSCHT
# Description: as §1, §2, §3, §4, §5, §6, §7, §8, §9
# C57BL/6J mice = assay: Cholesterol-lowering effect in mice on high-fat/high-cholesterol (HFHC) diet; assay type: in vivo; details: for HDL-cholesterol / HDL/total cholesterol / Total cholesterol: blood plasma, 1% extracts or 0.1% probucol (wt/wt diet)
# Description: 30 specific pathogens free male C57BL/6J mice at the age of 6 weeks were raised in an animal facility, in which temperature was maintained as 22±3° C., humidity was kept as 55±10% and light was regulated as 12L/12D. The mice were adapted for about one week before being used for experiments. When they were at the age of 7 weeks (weight: 20˜22 g), they were divided into […] according to randomized block design. Group 1 mice were given with high-cholesterol/high-fat diet (CRF-1; AIN-76 test animal's normal diet supplemented with 1.25% cholesterol and 15% fat, Orient Yeast Co. Ltd., Japan), group 2 mice were given with high-fat/high-cholesterol (HFHC) diet together with 1% methanol extracts (wt/wt diet) of T. nucifera leaves (or 1% hot water extracts of T. nucifera leaves), and group 3 mice were treated with HFHC diet together with 0.1% probucol (wt/wt diet). All the mice of every group were free to take the diet and water for 10 days. Dietary intake was recorded everyday and weights of animals were measured every 5 days. Upon completion of breeding, all the records were analyzed. […] All the mice in three groups were sacrificed 10 days after the beginning of animal tests, then their blood was examined. Blood was taken from retro-orbital sinus of the sacrified mice by heparin treated capillary tube. Centrifugation was performed with blood at 8,000×g for 10 minutes. Blood plasma was separated from supernatant and then stored in a deep freezer. Total cholesterol content (TC) in blood plasma of each mouse of experimental group was measured by using a blood chemistry analyzer (CIBA Corning 550 Express, USA). In order to measure HDL-cholesterol, HDL measuring reagent (Chiron Diagnostics Co., USA), produced by the modified method for HDL measurement (references [(1) Stein E. A., et al.: Development and evaluation of a method for quantitation of plasma high-density-lipoprotein cholesterol. Clin. Chem. 24: 1112-1115, 1978; (2) Finley P. R., et al.: Cholesterol in high-density lipoprotein: use of Mg^2+/dextran sulfate in its enzymatic measurement. Clin. Chem., 24: 931-933, 1978; (3) Warnick G. R., et al.: Dextran sulfate-Mg^2+ precipitation procedure for quantitation of high-density lipoprotein cholesterol. Clin. Chem. 28: 1379-1388, 1982]) in which dextran sulfate and magnesium sulfate were added to serum of each mouse to precipitate LDL and VLDL and then HDL in supernatant was measured, was mixed with blood plasma of each experimental group at the ratio of 1:10. […] The resultant supernatant was put in a blood chemistry analyzer. A statistical computer program (Microsoft Excel, Version 7.0) was used to investigate and confirm (student t-test) the significance in difference in the results of blood analysis among experimental groups.
# LDL = assay: Anti-oxidative activity to LDL by TBARS method (Cu2+ mediated LDL-oxidation); assay type: biochemical, human; details: 37° C. 4 hours, MDA by TBARS
# Description: Cu^2+ is known to mediate LDL-oxidation. Thus, in the present invention, dialdehyde, which is an oxidation product of unsaturated fatty acid formed during Cu^2+ mediated LDL-oxidation, was measured by thiobarbituric acid reactive substances (TBARS) method in order to investigate the LDL anti-oxidative activity of T. nucifera extracts or abietane diterpenoid compound separated from the same (Ahn, B. T. et. al., Low-density Lipoprotein-Antioxidant Constituents of Saururus Chinensis, J. Nat. Prod. 64: 1562, 2001). Centrifugation was performed with 300 ml of human blood plasma by using a ultracentrifuge at 100,000×g for 24 hours to remove floating VLDL/chylomicron layer in the upper part. The specific gravity of the remaining solution was adjusted to 1.063 g/ml. Centrifugation was performed again at 100,000×g for 24 hours, and 25 ml of the floating LDL (1.5˜2.5 mg protein/ml) in the upper layer was separated. […] T. nucifera extracts or abietane diterpenoid compound isolated from the same was dissolved in DMSO (dimethylsulfoxide), and the solution was diluted at different concentrations before use. […] OD540 was measured with a UV/VIS spectrophotometer. Malondialdehyde (MDA) detected by the above coloring was quantified. […] MDA was quantified by using the standard curve in experiments with T. nucifera extracts or abietane diterpenoid compound isolated from the same.
IC50 (hACAT-1),IC50 (hACAT-2),Compound,other results
41 µM,60 µM,"CC(C)c1ccc2c(c1)CC[C@H]1[C@](C)(CO)CCC[C@]21C [Dehydroabietinol, dehydroabietinol]",–
229 µM,263 µM,"C=C[C@@]1(C)CC[C@H]2C(=CC[C@@H]3[C@]2(C)CCC[C@@]3(C)C(=O)O)C1 [Isopimaric acid, isopimaric acid]",–
120 µM,155 µM,"C=C1CCC2[C@](C)(CO)CCC[C@]2(C)[C@H]1CC/C(C)=C\CO (stereo partly drawn) [Kayadiol, kayadiol]",–
–,–,CC(C)(Sc1cc(C(C)(C)C)c(O)c(C(C)(C)C)c1)Sc1cc(C(C)(C)C)c(O)c(C(C)(C)C)c1 [Probucol],"plasma HDL-cholesterol contents compared with negative control (C57BL/6J mice; HFHC diet 10 days): not much different; HDL-cholesterol (C57BL/6J mice; Table 3, HFHC diet 10 days): 41.7 ± 6.4 mg/dL; HDL/total cholesterol (C57BL/6J mice; Table 3, HFHC diet 10 days): 24.3%; Total cholesterol (C57BL/6J mice; Table 3, HFHC diet 10 days): 177.0 ± 33.7 mg/dL; total cholesterol in plasma reduced, comparing to a control (C57BL/6J mice; Table 3 experiment, vs HFHC diet group): 14.5%; HDL-cholesterol (C57BL/6J mice; Table 4, HFHC diet 10 days): 44.3 ± 6.5 mg/dL; HDL/total cholesterol (C57BL/6J mice; Table 4, HFHC diet 10 days): 24.5%; Total cholesterol (C57BL/6J mice; Table 4, HFHC diet 10 days): 180.9 ± 32.6 mg/dL; plasma cholesterol reduced, comparing to a control (C57BL/6J mice; Table 4 experiment, vs HFHC diet group): 11.5%; IC50 (LDL): 1550 nM"
37 µM,42 µM,"CC(C)c1cc2c(cc1O)[C@@]1(C)CCC[C@@](C)(C=O)C1CC2 (stereo partly drawn) [R = aldehyde, 18-oxoferruginol]",–
74 µM,65 µM,"CC(C)c1cc2c(cc1O)[C@@]1(C)CCC[C@@](C)(CO)C1CC2 (stereo partly drawn) [R = hydroxymethyl, 18-hydroxyferruginol]",–
79 µM,–,δ-cadinol,–

Compound,IC50 (hACAT-1),IC50 (hACAT-2),other results
"COC(OC)[C@]1(C)CCC[C@]2(C)c3cc(O)c(C(C)C)cc3CCC12 (stereo partly drawn) [R = dimethoxymethyl, 12-hydroxyabietic-8,11,13-trien-18-dimethylacetal]",98 µM,199 µM,–
"CC(C)c1cc2c(cc1O)[C@@]1(C)CCCC(C)(C)[C@@H]1CC2 [R = methyl, ferruginol]",46 µM,88 µM,–
"COC(=O)[C@]1(C)CCC[C@]2(C)c3cc(O)c(C(C)C)cc3CCC12 (stereo partly drawn) [R = methylester, 12-hydroxyabietic-8,11,13-trien-18-oic acid methylester]",129 µM,309 µM,–
